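A five-concentration, 48-hour dose response in 96-well plates underlies each endpoint, interpolated linearly between surrounding concentrations. GI50 marks 50% less growth. TGI is the concentration that stops growth completely.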 Where only a bound is given, the exact number is not on record here.

Among the test systems are CCRF-CEM leukemia; K-562 leukemia; M14 melanoma; SK-MEL-5 melanoma; SK-OV-3 ovarian; OVCAR-4 ovarian; SK-MEL-28 melanoma; T-47D breast; NCI-H460 lung; UACC-62 melanoma; HL-60(TB) leukemia.
Holding throughout (assay): DTP human tumour cell line panel, 48 h

The term TGI denotes the concentration at which net growth stops. A higher TGI goes with less potent growth arrest. Take `Oc1c(CN2CCOCC2)ccc2cccnc12`: the TGI was 7.56 µM in the experiment on CCRF-CEM leukemia; > 10 µM with K-562 leukemia; > 10 µM in the experiment with M14 melanoma; > 10 µM in the experiment on SK-MEL-5 melanoma; > 10 µM in the experiment with SK-OV-3 ovarian; > 10 µM in the experiment on OVCAR-4 ovarian. For the same compound, the TGI in the experiment on SK-MEL-28 melanoma, with T-47D breast and in the experiment on NCI-H460 lung was > 10 µM throughout.
Take `COc1cc(Cn2c3c(c4cc(O)ccc42)Cc2ccccc2C3=O)cc(OC)c1`: the TGI is 86 µM in the experiment on CCRF-CEM leukemia; > 100 µM in the experiment on K-562 leukemia; > 100 µM in the experiment on M14 melanoma; > 100 µM with SK-MEL-5 melanoma; > 100 µM in the experiment with SK-OV-3 ovarian; > 100 µM in the experiment on UACC-62 melanoma. In addition, the TGI in the experiment with HL-60(TB) leukemia, with OVCAR-4 ovarian, in the experiment on SK-MEL-28 melanoma and with NCI-H460 lung was > 100 µM throughout.
Regarding `C=CCCN1CCc2c([nH]c3ccccc23)C1C(=O)O` (stereo not drawn), the TGI in the experiment with CCRF-CEM leukemia, in the experiment with K-562 leukemia, in the experiment on M14 melanoma, in the experiment with SK-MEL-5 melanoma, in the experiment on SK-OV-3 ovarian and with UACC-62 melanoma was > 100 µM in each case. For the same compound, the TGI with HL-60(TB) leukemia, with OVCAR-4 ovarian, with SK-MEL-28 melanoma and with NCI-H460 lung was > 100 µM throughout.
Turning to `CCOC(=O)c1nc2ccc(C(F)(F)F)cc2nc1NCc1cc(OC)c(OC)c(OC)c1`, the TGI in the experiment with M14 melanoma is > 100 µM; in the experiment with SK-MEL-5 melanoma, > 100 µM; in the experiment with UACC-62 melanoma, > 100 µM; in the experiment on HL-60(TB) leukemia it was 83.4 µM; with SK-MEL-28 melanoma, > 100 µM; with T-47D breast, > 100 µM.
A word on the GI50: it is the concentration that inhibits growth by half. `CNc1ccc(C(=O)CC(O)CCC(C)C2OC(=O)CC(O)CC(=O)CC(O)CC(O)CC(O)CC(O)CC3(O)CC(O)C(C(=O)OC)C(CC(O[C@@H]4O[C@H](C)[C@@H](O)[C@H](N)[C@@H]4O)/C=C/C=C/C=C/C=C/C=C/C=C/C=C/C2C)O3)cc1` (stereo partly drawn): the GI50 in the experiment with K-562 leukemia is 5.05 µM; with M14 melanoma it was 2.26 µM; with SK-MEL-5 melanoma it was 1.42 µM; in the experiment with SK-OV-3 ovarian, 2.66 µM; with UACC-62 melanoma, 2.49 µM; in the experiment with HL-60(TB) leukemia, 2.9 µM. The GI50 with SK-MEL-28 melanoma is 1.12 µM; with T-47D breast, 3.37 µM; in the experiment on NCI-H460 lung, 2.97 µM. In addition, the TGI in the experiment with K-562 leukemia is 40.2 µM; with M14 melanoma, 7.32 µM; with SK-MEL-5 melanoma, 3.17 µM; with SK-OV-3 ovarian it was 6.92 µM; with UACC-62 melanoma, > 100 µM; with HL-60(TB) leukemia, 7.04 µM. Besides, the concentration for total growth inhibition (TGI) with SK-MEL-28 melanoma was 2.53 µM; with T-47D breast it was > 100 µM; in the experiment with NCI-H460 lung, 10.1 µM.
For the compound `O=C1CC(=Nc2ccc(Cl)cc2)C(c2ccccc2)N1c1ccccc1` (stereo not drawn), the TGI with K-562 leukemia was > 100 µM; in the experiment on M14 melanoma, 33.8 µM; with SK-MEL-5 melanoma, 22.8 µM; in the experiment on SK-OV-3 ovarian, 51.6 µM; in the experiment with UACC-62 melanoma it was 6.6 µM; in the experiment with HL-60(TB) leukemia it was 21.3 µM. For the same compound, the TGI with OVCAR-4 ovarian was > 100 µM; in the experiment on SK-MEL-28 melanoma, > 100 µM; in the experiment with T-47D breast it was 6.27 µM; in the experiment with NCI-H460 lung it was > 100 µM.
On to `COC1C=CC(O)C(CO)O1` (stereo not drawn), for which the TGI in the experiment with CCRF-CEM leukemia, with K-562 leukemia, in the experiment with M14 melanoma, in the experiment with SK-MEL-5 melanoma, with SK-OV-3 ovarian and with UACC-62 melanoma was > 100 µM in each case. Moreover, the TGI in the experiment with HL-60(TB) leukemia, with OVCAR-4 ovarian, in the experiment on SK-MEL-28 melanoma and in the experiment on NCI-H460 lung was > 100 µM in each case.
As for `NC(N)=N/N=C/c1c[nH]c2ccccc12`, the TGI in the experiment with CCRF-CEM leukemia, with K-562 leukemia, in the experiment with M14 melanoma, in the experiment on SK-MEL-5 melanoma, with SK-OV-3 ovarian and in the experiment on UACC-62 melanoma was > 100 µM in each case. Besides, the total growth inhibition concentration (TGI) in the experiment on HL-60(TB) leukemia, in the experiment with OVCAR-4 ovarian, in the experiment with SK-MEL-28 melanoma and with NCI-H460 lung was > 100 µM throughout.
With `CCOC(=O)/C=C(/C(=O)OCC)n1ccc(=O)n(Cc2cn(COCCOC(C)=O)nn2)c1=O`, the concentration for total growth inhibition (TGI) was 4.8 µM in the experiment with CCRF-CEM leukemia; > 100 µM in the experiment with K-562 leukemia; 75.4 µM with SK-MEL-5 melanoma; > 100 µM with SK-OV-3 ovarian; 36.7 µM with UACC-62 melanoma; 42.7 µM with OVCAR-4 ovarian. Also, the TGI in the experiment on SK-MEL-28 melanoma was found to be 35.1 µM; in the experiment on T-47D breast, 81 µM; in the experiment on NCI-H460 lung it was 29 µM.
Consider `Cc1ccc(-c2c(C#N)c(-c3ccc(Cl)cc3)c(C#N)c(=O)n2NS(=O)(=O)c2ccc(C)cc2)cc1`, for which the TGI was 51.8 µM with CCRF-CEM leukemia; > 100 µM in the experiment with K-562 leukemia; 60.2 µM in the experiment on M14 melanoma; 38.9 µM with SK-MEL-5 melanoma; 89.2 µM in the experiment on SK-OV-3 ovarian; 45 µM in the experiment with UACC-62 melanoma. The TGI with OVCAR-4 ovarian, with SK-MEL-28 melanoma and in the experiment on NCI-H460 lung was > 100 µM in each case.
Turning to `COC[C@@H](C[C@H]1O[C@@](O)([C@H](O)[C@@H]2C[C@H](OC)[C@@H](O)CC/C=C(C)/C=C/[C@@H](O[C@@H]3O[C@@H](C)[C@H](OC)[C@@H](O)[C@@H]3O)[C@H](C)/C=C(C)/C=C(C)/C=C(\C)C(=O)O2)[C@H](C)[C@@H](O)[C@H]1C)O[C@H]1C[C@](C)(O)[C@@H](O[C@H]2C[C@@H](OC)[C@H](O)[C@@H](C)O2)C(C)O1` (stereo partly drawn), the TGI is > 46.7 µM in the experiment on K-562 leukemia; > 100 µM in the experiment with M14 melanoma; > 100 µM in the experiment with SK-MEL-5 melanoma; > 100 µM in the experiment with SK-OV-3 ovarian; > 100 µM with UACC-62 melanoma; > 100 µM with HL-60(TB) leukemia. The TGI with OVCAR-4 ovarian, with SK-MEL-28 melanoma, in the experiment on T-47D breast and in the experiment with NCI-H460 lung was > 100 µM in each case.
In the case of `OCC(O)COCn1nncc1Cn1ncc2c(SCc3ccccc3)ncnc21` (stereo not drawn), the TGI with CCRF-CEM leukemia, in the experiment on M14 melanoma, in the experiment with SK-MEL-5 melanoma, in the experiment on SK-OV-3 ovarian, with UACC-62 melanoma and with OVCAR-4 ovarian was > 100 µM each time. For the same compound, the TGI in the experiment with SK-MEL-28 melanoma and in the experiment with T-47D breast was > 100 µM each time.
For the compound `Cc1ccc(/C=C2\CCCc3ccccc3C2=O)cc1`, the TGI stood at 36.5 µM in the experiment on CCRF-CEM leukemia; 53.7 µM in the experiment on K-562 leukemia; 20.4 µM with M14 melanoma; 58 µM in the experiment with SK-OV-3 ovarian; 29.2 µM in the experiment with UACC-62 melanoma; 30.7 µM in the experiment on HL-60(TB) leukemia. In addition, the TGI with OVCAR-4 ovarian is > 100 µM; with SK-MEL-28 melanoma, > 100 µM; in the experiment with NCI-H460 lung it was 32.5 µM.

Source of the values: PubChem BioAssay (NCI).
